Measurements published in patent US20020119178A1 (priority 2001, published 2002).
Read-outs that look alike come from different tables or passages of the source. Starred links: 1 amine or outer side, 2 acyl side, 3 side chain; linkers in the order of their positions; H or OH if unused. Positions of bridges follow the written chain, without caps; N, C: chain ends. Non-standard residues stand in square brackets, D forms with d. Residues, ends and D or L forms follow the SMILES beside them. Chains are numbered I, II in the order given. Actinocin(9to1) = Cc1c2oc3c(C)ccc(C(=O)[*:1])c3nc-2c(C(=O)[*:2])c(N)c1=O; NMeV = CN[C@H](C(=O)O)C(C)C; Sar = CNCC(=O)O

How the values were obtained:
[1] = tested on: human saphenous vein smooth muscle cells (HSV-SMC); experiment: HSV-SMC proliferation assay (MTS), drugs at known concentrations; assay type: cell-based; conditions: read-out: IC50 (concentration at which the proliferation is reduced by 50%)
Method: (§1) A proliferation assay was performed using human saphenous vein smooth muscle cells (HSV-SMC) with cells at passage 3-5. HSV-SMC were established in 96-well plates for 24 hours then serum starved for 48 hours. […] A positive control (100%) was set for cells exposed to DMEM supplemented with 20% FBS only while a negative control (0%) was set for cells exposed to only unsupplemented DMEM. Cells were stimulated for 72 hours with the anti-proliferative drug containing culture media. A solution of [3-(4,5-dimethylthiazol-2-yl)-5-(3-carboxymethoxyphenyl)-2-(4-sulfophenyl)-2H-tetrazolium](MTS, a cell proliferation marker) is then added onto the cells for 3 hours. Absorbance at 490 nm is recorded using a 96-well plate reader.

[2] = for residual tritiated actinomycin D remaining on the discs following 8 days of elution: physiological medium
Method: In FIG. 1, the electrochemical cell 10 is a standard three-electrode setup. A saturated Calomel electrode (SCE) was used as the reference electrode 12 and the counter electrode 14 was a circular platinum foil (3 cm^2). A 316L stainless steel disk (0.8 cm^2 area) connected to a platinum wire 16 was used as the working electrode 18. The cell was filled with an aqueous electrodeposition solution composed of 5 mM sulfuric acid and 20 mM of an aryldiazonium-containing molecule as described in FIG. 2 for the cyclic voltammetry electrochemical process. The electrodeposition of the aryldiazonium onto the stainless steel device was applied using 2 consecutive cyclic scans ranging from −0.5 V to −1.75 V relatively to the SCE reference electrode. The current-voltage response was followed on a XY recorder. Following electrodeposition, the device was consecutively washed with water and acetonitrile to remove impurities.
FIG. 5 illustrates the necessity of the presence of a molecule containing a diazonium moiety to retain tritiated actinomycin D deposited on the surface of stainless steel 316L discs. In this experiment, stainless steel 316L discs, which are made out of the same material as the stainless steel stents and other endovascular devices, are either functionalized with 4-bromobenzenediazonium or left bare. The discs are then exposed to a solution containing 30 μg of tritiated actinomycin D whereas the solvent is acetonitrile or ethanol. Following dipping, the discs are left to dry at room temperature until the solvent evaporates. The discs are first washed in deionized water for 5 minutes followed by a 5-minute wash in a physiologic solution. The discs are then counted in a scintillation counter.
FIG. 6 illustrates the loading and retention capacity of tritiated actinomycin D immobilized as described previously onto stainless steel 316L discs, with the exception however that water was also used as solvent for immobilizing tritiated actinomycin D. Following immobilization, the discs were first washed for 5 minutes in deionized water followed by a 5-minute wash in a physiologic solution. The loading of tritiated actinomycin D onto the stainless steel discs varied according of the type of solvent used: acetonitrile>ethanol>water.
FIG. 7 illustrates the effect of varying concentrations of the 4-bromobenzenediazonium solution on the loading and retention of 30 μg of tritiated actinomycin D following 8 days of elution in a physiological medium. Stainless steel 316L discs were exposed to varying concentrations of 4-bromobenzenediazonium solution before electrodeposition with the set-up as described in FIG. 1. Actinomycin D loading in the ethanol solution increased 1.6 fold, from 4324±329 for […] to 7146±80 for 20 mM. […]

[3] = tested on: human saphenous vein smooth muscle cells (HSV-SMC); assay type: cell-based; conditions: bromobenzenediazonium coated discs only, no drug
Method: as §1

[4] = Homo sapiens, HSV-SMC passage 3-5, 20% FBS, 72 hours, MTS absorbance 490 nm

CC[C@]1(O)C[C@@H]2CN(CCc3c([nH]c4ccccc34)[C@@](C(=O)OC)(c3cc4c(cc3OC)N(C)[C@H]3[C@@](O)(C(=O)OC)[C@H](OC(C)=O)[C@]5(CC)C=CCN6CC[C@]43[C@@H]65)C2)C1 [vinblastine]
IC50 [1, 4]: 0.74 nM

CO[C@H]1C[C@@H]2CC[C@@H](C)[C@@](O)(O2)C(=O)C(=O)N2CCCC[C@H]2C(=O)O[C@H]([C@H](C)C[C@@H]2CC[C@@H](O)[C@H](OC)C2)CC(=O)[C@H](C)/C=C(\C)[C@@H](O)[C@@H](OC)C(=O)[C@H](C)C[C@H](C)/C=C/C=C/C=C/1C [rapamycin]
IC50 ([1]; Homo sapiens, 72 h): 0.12 nM

CC(=O)O[C@H]1C(=O)[C@@]2(C)[C@H]([C@H](OC(=O)c3ccccc3)[C@]3(O)C[C@H](OC(=O)[C@H](O)[C@@H](NC(=O)c4ccccc4)c4ccccc4)C(C)=C1C3(C)C)[C@]1(OC(C)=O)CO[C@@H]1C[C@@H]2O [paclitaxel]
IC50 [1, 4]: 48 nM

COc1cccc2c1C(=O)c1c(O)c3c(c(O)c1C2=O)C[C@@](O)(C(=O)CO)C[C@@H]3O[C@H]1C[C@H](N)[C@H](O)[C@H](C)O1 [doxorubicin]
IC50 [1, 4]: 8 nM

Cc1c2oc3c(C)ccc(C(=O)N[C@@H]4C(=O)N[C@H](C(C)C)C(=O)N5CCC[C@H]5C(=O)N(C)CC(=O)N(C)[C@@H](C(C)C)C(=O)O[C@@H]4C)c3nc-2c(C(=O)N[C@@H]2C(=O)N[C@H](C(C)C)C(=O)N3CCC[C@H]3C(=O)N(C)CC(=O)N(C)[C@@H](C(C)C)C(=O)O[C@@H]2C)c(N)c1=O [actinomycin D] (I: T[dV]P[Sar][NMeV] / II: T[dV]P[Sar][NMeV]; ester I:1-I:C, II:1-II:C; linker I:N-II:N via Actinocin(9to1))
IC50 ([1]; HSV-SMC passage 3-5, 20% FBS, 72 hours, MTS absorbance 490 nm): 0.081 nM
residual tritiated actinomycin D remaining on the discs following 8 days of elution ([2]; 0.02 mM 4-bromobenzenediazonium): 348±52
residual tritiated actinomycin D remaining on the discs following 8 days of elution ([2]; 20 mM 4-bromobenzenediazonium): 2539±43
drug remaining on the discs after 10 days of elution ([2]; 4-bromobenzenediazonium functionalized discs loaded with acetonitrile, physiological solution): ~20%
drug remaining on discs following 10 days of elution ([2]; functionalized discs loaded with acetonitrile or ethanol): substantial amounts

CC[C@]1(O)C[C@H]2CN(CCc3c([nH]c4ccccc34)[C@@](C(=O)OC)(c3cc4c(cc3OC)N(C=O)[C@H]3[C@@](O)(C(=O)OC)[C@H](OC(C)=O)[C@]5(CC)C=CCN6CC[C@]43[C@@H]65)C2)C1 [vincristine]
IC50 ([1]; Homo sapiens, 72 h): 0.82 nM

F[B-](F)(F)F.N#[N+]c1ccc(Br)cc1 [molecule 5, 4-bromobenzenediazonium tetrafluoroborate]
effect of elution on cell proliferation [3]: does not inhibit cell proliferation
